Measurements reported in US20070218030A1, “Dietetic Preparation for Prevention and Treatment of Osteoporosis” (priority 2003, published 2007).

Test system: ovarectomised female rats
Assay: experimental osteoporosis in ovarectomised female rats, oral administration
Type: in vivo
Details: for symptoms of osteoporosis: female rats after surgically removed ovaries, administered orally, not yet published experimental results
Method: An experiment was carried out on ovarectomised female rats in which an experimental osteoporosis was induced.

[1] = ovarectomised female rats with induced experimental osteoporosis, oral, molecular weight over 500 000 g/mol, dosage 150 to 4500 μg/kg

Row | Substance | symptoms of osteoporosis | bone density [1] | excretion of the metabolite of bone matrix breakdown into urine [1]
1 | calcium hyaluronate | able to suppress symptoms of osteoporosis | – | –
2 | sodium hyaluronate | able to suppress symptoms of osteoporosis | normalisation of bone density | returned to normal
